Source: patent US20260008760A1, “DIPEPTIDYL PEPTIDASE 1 INHIBITORS AND USES THEREOF” (Insmed Incorporated, priority 2024, published 2026)

Key:
[1] = target: DPP1 in HL-60 cells (Homo sapiens, UniProt P53634); assay: DPP1 Cell Single-Point Percent Inhibition Testing; assay type: cell-based; set-up: host or cells: HL-60 cells; settings: final compound concentration 5 nM, n = 1
Protocol: Example 100. DPP1 Cell Single-Point Percent Inhibition Testing
HL-60 cells (ATCC; Manassas, VA) were maintained in RPMI-1640 supplemented with 20% heat-inactivated FBS and 1× Antibiotic Antimycotic (Cytiva; Marlborough, MA). Media was changed every three to four days and cells were not allowed to exceed 1×10^6 cells per mL. Prior to assay, cells were collected by centrifugation at 500 rcf for 3 minutes, resuspended in RPMI (with no additional supplements) and counted. Cells were diluted in RPMI to a concentration of 5×10^5 live cells per mL and transferred to black 96-well plates for assay, 60 μL per well. Test articles were diluted to 25 nM in RPMI plus 0.5% DMSO, and 20 μL was added to each assay well. Compound was allowed to pre-incubate with cells with gentle shaking at 100 rpm for 60 minutes at 37° C. in a cell culture incubator maintained at 5% CO2, after which 20 μL of 500 μM H-Gly-Phe-AFC cell-permeable substrate (MP Biomedicals; Solon, OH) in RPMI was added to each well, giving final compound concentration of 5 nM, a final substrate concentration of 100 μM and a final DMSO concentration of 0.1%. Plates were returned to the incubator with shaking at 100 rpm for 30 minutes, after which fluorescence was measured at Excitation/Emission 400/505 nm. Percent Inhibition was calculated from RFU values by first subtracting background values (wells in which RPMI was substituted for cells) from each well, and then subtracting background-subtracted RFU derived from wells that received a final concentration of 10 μM brensocatib. This value represents the non-specific substrate cleavage from the HL-60 cells, and the remaining RFU should theoretically be solely the contribution of DPP1 enzyme activity. The final percent inhibition value was calculated for each test article based on remaining RFU compared to RFU from wells that received only vehicle control.

[2] = target: human DPP1 enzyme (Homo sapiens, UniProt P53634); assay: Human DPP1 Enzyme Single-Point Percent Inhibition Testing (HL-60 lysate); assay type: biochemical; set-up: A crude lysate of HL-60 cells (ATCC; Manassas, VA) was used as a source of human DPP1 enzyme; host or cells: HL-60 cells (crude lysate); settings: final compound concentration of 10 nM, 400 μM H-Gly-Arg-AMC, n = 1
Protocol: Example 98. Human DPP1 Enzyme Single-Point Percent Inhibition Testing
A crude lysate of HL-60 cells (ATCC; Manassas, VA) was used as a source of human DPP1 enzyme in the assay. Lysate was prepared in 1% Triton X-100 in PBS at a concentration of 20,000 live cells per μL of lysis buffer and was centrifuged at 16,000 rcf for 10 minutes at 4° C., after which supernatant was collected and flash-frozen in liquid nitrogen. Test articles were applied to human DPP1 enzyme in Assay Buffer (25 mM MES pH 6.0, 50 mM NaCl, 5 mM DTT) in a total reaction volume of 125 μL. 25 μL of compound diluted to 50 nM in Assay Buffer plus 5% DMSO was first added to 50 μL of HL-60 lysate diluted to contain a DPP1 enzyme concentration of roughly 1 ng/μL and allowed to pre-incubate for 10 minutes at 37° C. after which 50 μL of 1000 μM H-Gly-Arg-AMC substrate (Bachem; St. Torrance, CA) was added, giving final compound concentration of 10 nM, a final substrate concentration of 400 μM and a final DMSO concentration of 1%. Substrate cleavage was measured for 90 minutes at 37° C., with fluorescence at Excitation/Emission 350/450 nm measured every 5 minutes. DPP1 concentration was interpolated based on its activity relative to a standard curve of activated human recombinant DPP1 enzyme. Percent inhibition at 10 nM was calculated for each test article based on remaining DPP1 activity compared to enzyme activity in wells that received only vehicle control.

Chain of DPP1 in HL-60 cells (P53634 25-463): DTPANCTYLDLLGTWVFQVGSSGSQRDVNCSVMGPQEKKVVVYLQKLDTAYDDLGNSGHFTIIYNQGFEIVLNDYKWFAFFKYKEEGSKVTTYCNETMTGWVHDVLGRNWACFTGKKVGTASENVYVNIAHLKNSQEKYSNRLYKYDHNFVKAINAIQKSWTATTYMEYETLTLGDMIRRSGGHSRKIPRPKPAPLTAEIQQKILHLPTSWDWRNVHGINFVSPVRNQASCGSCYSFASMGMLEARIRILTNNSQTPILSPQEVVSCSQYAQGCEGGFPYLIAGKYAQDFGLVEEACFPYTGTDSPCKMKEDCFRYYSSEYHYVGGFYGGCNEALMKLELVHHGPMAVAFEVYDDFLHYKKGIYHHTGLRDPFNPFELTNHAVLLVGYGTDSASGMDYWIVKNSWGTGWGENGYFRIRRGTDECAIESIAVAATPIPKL
Chain of human DPP1 enzyme (P53634 25-463): as above

SMILES | inhibition at 0.005 µM [1] [%] | inhibition at 0.01 µM [2] [%]
CO[C@H]1CCO[C@H](C(=O)N[C@H](C#N)Cc2ccc(-c3ccc4c(n3)CCCN4)cc2)CNC1 [Compound A93] | ≤ 76.5 | ≤ 40
CO[C@H]1CCO[C@H](C(=O)N[C@H](C#N)Cc2ccc(-c3ccc4cnn(C)c4c3)cc2)CNC1 [Compound H17] | ≤ 76.5 | ≤ 40
C[C@@H]1NC[C@@H](C(=O)N[C@H](C#N)Cc2ccc(-c3ccc4nnn(C)c4c3)cc2)OC[C@@H]1O [Compound H30] | ≤ 76.5 | ≤ 40
CO[C@@H]1CCNC[C@@H](C(=O)N[C@H](C#N)Cc2ccc(-c3cc4c(C)nc(C)cn4c3)cc2)OC1 [Compound A80] | 76.5 to 93.9 | ≥ 66.7
Cc1cn2cc(-c3ccc(C[C@@H](C#N)NC(=O)[C@@H]4CNCCCO4)cc3)cc2c(C)n1 [Compound A116] | ≤ 76.5 | ≤ 40
N#C[C@H](Cc1ccc(-c2cnc3c(n2)CCCC3)cc1F)NC(=O)[C@@H]1CNCCCCO1 [Compound A115] | ≤ 76.5 | ≤ 40
COC1CNC[C@@H](C(=O)NC(C#N)Cc2cc3c(cc2F)-c2cc4c(cc2CO3)oc(=O)n4C)OC1 (stereo partly drawn) [Compound C14] | ≤ 76.5 | ≥ 66.7
C[C@@H]1NC[C@@H](C(=O)N[C@H](C#N)Cc2ccc(-c3ccc4nnn(C)c4c3)cc2)OC[C@H]1O [Compound H24] | ≤ 76.5 | ≥ 66.7
CN1CCC(n2ncc3ccc(-c4ccc(C[C@@H](C#N)NC(=O)[C@@H]5CNCCCCO5)cc4)cc32)CC1 [Compound H33] | ≤ 76.5 | ≤ 40
CO[C@H]1CCO[C@H](C(=O)N[C@H](C#N)Cc2ccc(-c3ccc4cnn(C5CCN(C)CC5)c4c3)cc2)CNC1 [Compound H15] | ≤ 76.5 | 40 to 66.7
N#C[C@H](Cc1ccc(-c2ccn3cnnc3c2)cc1)NC(=O)[C@@H]1CNCCCCO1 [Compound H44] | ≤ 76.5 | ≤ 40
N#C[C@H](Cc1ccc(-c2ccc3c(n2)CCCN3)cc1)NC(=O)[C@@H]1CNCCCCO1 [Compound A111] | ≤ 76.5 | ≤ 40
CO[C@H]1CCO[C@H](C(=O)NC(C#N)Cc2cc3c(cc2F)-c2ccc(F)cc2CO3)CNC1 (stereo partly drawn) [Compound B26] | ≤ 76.5 | 40 to 66.7
N#Cc1ccc2c(c1)-c1cc(F)c(CC(C#N)NC(=O)[C@@H]3CNCCCCO3)cc1OC2 (stereo partly drawn) [Compound B29] | ≤ 76.5 | ≤ 40
CN1CCC2(C1)OC(=O)c1ccc(-c3ccc(C[C@@H](C#N)NC(=O)[C@@H]4CNCCCCO4)c(F)c3)cc12 (stereo partly drawn) [Compound 43] | ≤ 76.5 | 40 to 66.7
CCN1C(=O)Cc2ccc(-c3ccc(C[C@@H](C#N)NC(=O)[C@@H]4CNC[C@@H](OC)CCO4)cc3)cc21 [Compound G5] | ≤ 76.5 | 40 to 66.7
CO[C@@H]1CCNC[C@@H](C(=O)N[C@H](C#N)Cc2ccc(-c3ccc4cnn(C5CCN(C)CC5)c4c3)cc2F)OC1 [Compound H4] | ≤ 76.5 | ≥ 66.7
Cc1ncc(C)n2cc(-c3ccc(C[C@@H](C#N)NC(=O)[C@@H]4CN[C@@H](C)[C@@H](O)CO4)cc3)cc12 [Compound A134] | ≤ 76.5 | 40 to 66.7
CN1CCC2(C1)OC(=O)c1ccc(-c3ccc(C[C@@H](C#N)NC(=O)[C@@H]4CNCCCCO4)cc3)cc12 (stereo partly drawn) [Compound 38] | ≤ 76.5 | ≤ 40
Cn1nnc2ccc(-c3ccc(C[C@@H](C#N)NC(=O)[C@@H]4CNCCCCO4)cc3)cc21 [Compound H36] | ≤ 76.5 | ≤ 40

SMILES | inhibition at 0.005 µM [1] [%] | inhibition at 0.01 µM [2] [%]
CO[C@@H]1CCNC[C@@H](C(=O)N[C@H](C#N)Cc2ccc(-c3ccc4c(n3)CCCN4)cc2)OC1 [Compound A81] | ≤ 76.5 | 40 to 66.7
CO[C@H]1CCO[C@H](C(=O)N[C@H](C#N)Cc2ccc(-c3ccc4c(n3)CCCN4)cc2F)CNC1 [Compound A95] | ≤ 76.5 | 40 to 66.7
C[C@@H]1NC[C@@H](C(=O)N[C@H](C#N)Cc2ccc(-c3ccc4cnn(C5CCN(C)CC5)c4c3)cc2)OC[C@@H]1O [Compound H27] | ≤ 76.5 | ≤ 40
Cn1c(=O)oc2cc3c(cc21)-c1cc(F)c(CC(C#N)NC(=O)[C@@H]2CNCCCCO2)cc1OC3 (stereo partly drawn) [Compound C25] | 76.5 to 93.9 | ≥ 66.7
CO[C@@H]1CCNC[C@@H](C(=O)N[C@H](C#N)Cc2ccc(-c3ccc4nnn(C)c4c3)cc2)OC1 [Compound H6] | ≤ 76.5 | ≥ 66.7
COC1CNC[C@@H](C(=O)N[C@H](C#N)Cc2ccc(-c3cc4c(C)nc(C)c(C)n4c3)cc2)OC1 (stereo partly drawn) [Compound A126] | ≥ 93.9 | ≥ 66.7
CO[C@H]1CCO[C@H](C(=O)NC(C#N)Cc2cc3c(cc2F)-c2cc4c(cc2CO3)oc(=O)n4C)CNC1 (stereo partly drawn) [Compound C16] | ≤ 76.5 | ≥ 66.7
Cn1c(=O)oc2cc3c(cc21)-c1cc(F)c(CC(C#N)NC(=O)[C@@H]2CNCCCO2)cc1OC3 (stereo partly drawn) [Compound C28] | 76.5 to 93.9 | ≥ 66.7
C[C@@H]1NC[C@@H](C(=O)N[C@H](C#N)Cc2ccc(-c3ccn4ccnc4c3)cc2)OC[C@@H]1O [Compound H43] | ≤ 76.5 | ≤ 40
CO[C@H]1CCO[C@H](C(=O)N[C@H](C#N)Cc2ccc(-c3cc4c(C)nc(C)cn4c3)cc2F)CNC1 [Compound A94] | ≤ 76.5 | ≤ 40
CO[C@@H]1CCNC[C@@H](C(=O)N[C@H](C#N)Cc2ccc(-c3ccc4c(c3)C3(CCN(C5COC5)CC3)OC4)cc2)OC1 [Compound F9] | ≤ 76.5 | ≥ 66.7
Cc1cn2cc(-c3ccc(C[C@@H](C#N)NC(=O)[C@@H]4CN[C@@H](C)[C@@H](O)CO4)cc3)cc2c(C)n1 [Compound A104] | ≤ 76.5 | ≤ 40
COC1CNC[C@@H](C(=O)N[C@H](C#N)Cc2ccc(-c3ccc4cnn(C)c4c3)cc2F)OC1 (stereo partly drawn) [Compound H13] | 76.5 to 93.9 | ≥ 66.7
CO[C@@H]1CCNC[C@@H](C(=O)N[C@H](C#N)Cc2ccc(-c3ccc(CN4CCN(C)CC4)cc3)cc2F)OC1 [Compound F15] | ≤ 76.5 | ≥ 66.7
CO[C@H]1CCO[C@H](C(=O)N[C@H](C#N)Cc2ccc(-c3ccc4c(c3)C3(CC4)CCN(C)CC3)cc2)CNC1 [Compound F18] | ≤ 76.5 | ≥ 66.7
CO[C@H]1CCO[C@H](C(=O)N[C@H](C#N)Cc2ccc(-c3ccc4cnn(C5CCN(C)CC5)c4c3)cc2F)CNC1 [Compound H16] | ≤ 76.5 | ≥ 66.7
N#Cc1ccc2c(c1)COc1cc(C[C@@H](C#N)NC(=O)[C@@H]3CNCCCCO3)c(F)cc1-2 [Compound B28] | ≤ 76.5 | 40 to 66.7
Cc1nc(C)c2cc(-c3ccc(C[C@@H](C#N)NC(=O)[C@@H]4CN[C@@H](C)[C@H](O)CO4)cc3)cn2c1C [Compound A132] | 76.5 to 93.9 | ≥ 66.7
CO[C@@H]1CCNC[C@@H](C(=O)N[C@H](C#N)Cc2ccc(-c3ccn4ccnc4c3)cc2)OC1 [Compound H39] | ≤ 76.5 | 40 to 66.7
